The nature of data set [1]: Area under the light absorbance spectrum curve of a 0.001 w/v % aqueous solution (UV meter, trapezoidal formula). It is filed as physicochemical. To be noted: 0.001 w/v % aqueous solution of the added compound. On the procedure:
FIG. 1 is a graph showing the relationship between the absorbance wavelength and the absorbance of various compounds. The measurement method is as follows. A 0.001 w/v % aqueous solution of a drug and various stabilizers was prepared, and the absorbances at each absorbance wavelength in a range of 200 nm to 600 nm were measured. […] Condition: scan speed: medium speed, sampling pitch: 1.0, length of light path: 10 mm, width of a slit: 2.0 nm.
FIG. 2 is a graph showing a method for calculating the area under the spectrum curve of various compounds. The area under the spectrum curve was calculated by a trapezoidal formula. That is, for the spectrum of each of the compounds, the trapezoidal area was calculated at every sampling pitch (1.0 nm), and a desired area was measured from the total value of the trapezoidal areas in the wavelength range.

A short description of data set [2]: Stability under irradiation with a white fluorescent lamp of 1000 Lux, assay value by liquid chromatography. To be noted: compound added to ramosetron hydrochloride preparation.
Experimental: The quantitative determination was carried out by liquid chromatography.
Data set [3] is described as follows: Stability under sealing of an HDPE plastic bottle at 40° C. and 75% RH, assay value by liquid chromatography. To be noted: compound added to ramosetron or its salt. It is filed as physicochemical.

The text below walks through data of US20100062063A1, “LIGHT-STABLE SOLID PHARMACEUTICAL COMPOSITION OF RAMOSETRON” (ASTELLAS PHARMA INC., priority 2006, published 2010).

Entries after “also recorded” stand apart in the source; their conditions may differ.

As to `O=C([O-])c1ccccc1-c1c2cc(I)c(=O)c(I)c-2oc2c(I)c([O-])c(I)cc12.[Na+].[Na+]` [Food Red No. 3, reference compound], in data set [1], the “area under the spectrum curve at the wavelength range of 220 nm to 240 nm” value (from here on “area under the spectrum curve … to 240 nm”) is 4.2 and the “area under the spectrum curve at the wavelength range of 280 nm to 300 nm” value (“area under the spectrum curve … to 300 nm” below) is 1.8.
In the same order, the values of `O=S(=O)([O-])c1cc(S(=O)(=O)[O-])c2c(N=Nc3ccc(S(=O)(=O)[O-])c4ccccc34)c(O)ccc2c1.[Na+].[Na+].[Na+]` [Food Red No. 102] are 10.0 and 3.1.
For `OC[C@@H](O)[C@@H](O)[C@H](O)[C@H](O)CO` [mannitol, reference compound], the “stabilizing effect of the added compound on ramosetron hydrochloride against light (in words)” value (shortened to “stabilizing effect … against light (in words)”) in data set [2] was “did not exhibit a remarkable stabilizing effect against light”. In addition, in data set [1], the “area under the spectrum curve … to 240 nm” value is on record as 0.1 and the “area under the spectrum curve … to 300 nm” value stood at 0.1.
Consider `Cc1cc(S(=O)(=O)[O-])c2c(C)ccc(C(C)C)cc1-2.[Na+]` [sodium azulene sulfonate], for which the “stabilizing effect … against light (in words)” value in data set [2] is “a remarkable stabilizing effect of ramosetron hydrochloride against the irradiation with light is found; also recorded: exhibited a remarkable stabilizing effect against light”. In data set [1], the “area under the spectrum curve … to 240 nm” value is on record as 8.4 and the “area under the spectrum curve … to 300 nm” value was found to be 19.9.
For the compound methyl hesperidin, in data set [2], the “stabilizing effect … against light (in words)” value was “a remarkable stabilizing effect of ramosetron hydrochloride against the irradiation with light is found; also recorded: exhibited a remarkable stabilizing effect against light”. Moreover, in data set [1], the “area under the spectrum curve … to 240 nm” value amounted to 5.4 and the “area under the spectrum curve … to 300 nm” value was determined as 3.7. The “stabilizing effect of the added compound on ramosetron under a high-temperature and high-humidity condition (in words)” value in data set [3] is “a remarkable stabilizing effect under a high-temperature and high-humidity condition”.
Regarding αG hesperidin, the “stabilizing effect … against light (in words)” value in data set [2] was “a remarkable stabilizing effect of ramosetron hydrochloride against the irradiation with light is found; also recorded: exhibited a remarkable stabilizing effect against light”. Besides, in data set [1], the “area under the spectrum curve … to 240 nm” value was 6.0 and the “area under the spectrum curve … to 300 nm” value was 5.0. Moreover, the “stabilizing effect of the added compound on ramosetron under a high-temperature and high-humidity condition (in words)” value in data set [3] was “a remarkable stabilizing effect under a high-temperature and high-humidity condition”.
